Drawing on patent publication US6750228B1, “Aromatic sulfone hydroxamic acid metalloprotease inhibitor” (priority 1997, dated 2004), this text covers IC50 for 19 compounds.

Counter-ions that a name gives are not always drawn. Like-named read-outs stand apart in the source and are kept apart here.

What all share (test): biochemical
The target in one experiment is T1, MMP-1 (Homo sapiens, UniProt P03956).
T1 construct: made in house; host or cells: transfected HT-1080 cells (provided by Dr. Harold Welgus, Washington University)
T1 sequence (P03956 100-469): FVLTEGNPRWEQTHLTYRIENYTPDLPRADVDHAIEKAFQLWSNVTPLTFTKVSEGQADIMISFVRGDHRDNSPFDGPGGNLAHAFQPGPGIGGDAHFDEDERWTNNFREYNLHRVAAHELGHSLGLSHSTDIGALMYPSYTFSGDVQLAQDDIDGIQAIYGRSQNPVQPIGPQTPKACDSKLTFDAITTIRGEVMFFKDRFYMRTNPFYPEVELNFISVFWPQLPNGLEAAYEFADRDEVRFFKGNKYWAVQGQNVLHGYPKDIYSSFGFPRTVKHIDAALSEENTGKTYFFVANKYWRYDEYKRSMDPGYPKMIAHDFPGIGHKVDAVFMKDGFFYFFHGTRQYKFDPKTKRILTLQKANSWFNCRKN
The settings on record: read-out: MMP-1 IC50. The procedure: (§1) The compounds prepared in the manner described in the Examples above were assayed for activity by an in vitro assay. […] Briefly, 4-aminophenylmercuric acetate (APMA) or trypsin-activated MMPs were incubated with various concentrations of the inhibitor compound at room temperature for 5 minutes.
(§2) The expressed enzyme was purified first over a heparin agarose column and then over a chelating zinc chloride column. The proenzyme was activated by APMA for use in the assay.
(§3) MMP-1 expressed in transfected HT-1080 cells was provided by Dr. Harold Welgus of Washington University, St. Louis, Mo. The enzyme was also activated using APMA and was then purified over a hydroxamic acid column. Dr. Welgus also provided transfected HT-1080 cells that expressed MMP-9. Transfected cells that expressed MMP-2 were provided by Dr. Gregory Goldberg, also of Washington University. Studies with MMP-7 were carried out at pH 7.5 in the presence of 0.02% 2-mercaptoethanol using conditions otherwise similar to those used for the other enzymes. The enzyme was obtaind from a hMMP-7-expressing E. coli clone that was a gift of Dr. Steven Shapiro of Washington University, St. Louis, Mo. Further specifics for preparation and use of these enzymes can be found in the scientific literature describing these enzymes. See, for example, Enzyme Nomenclature, Academic Press, San Diego, Calif. […] The enzyme substrate is a methoxycoumarin-containing polypeptide having the following sequence:
(§4) MCA-ProLeuGlyLeuDpaAlaArgNH2, wherein MCA is methoxycoumarin and Dpa is 3-(2,4-dinitrophenyl)-L-2,3-diaminopropionyl alanine.
(§5) The buffer used for assays contained 100 mM Tris-HCl, 100 mM NaCl, 10 mM CaCl2 and 0.05 percent polyethyleneglycol (23) lauryl ether at a pH value of 7.5. Assays were carried out at room temperature, and dimethyl sulfoxide (DMSO) at a final concentration of 1 percent was used to dissolve inhibitor compound.
(§6) The assayed inhibitor compound in DMSO/buffer solution was compared to an equal amount of DMSO/buffer with no inhibitor as control using Microfluor White Plates (Dynatech). The inhibitor or control solution was maintained in the plate for 10 minutes and the substrate was added to provide a final concentration of 4 μM.
(§7) Inhibition was measured as a reduction in fluorescent intensity as a function of inhibitor concentration, using a Perkin Elmer L550 plate reader. The IC50 values were calculated from those values. The results are set forth in the Inhibition Table A, below, reported in terms of IC50 to three significant figures, where appropriate.

A further experiment concerns the target T2, MMP-13 (Homo sapiens, UniProt P45452).
T2 construct: made in house; host or cells: baculovirus / insect cells
The settings on record: read-out: MMP-13 IC50. On the procedure:
as §1, §2, §3, §4, §5, §6, §7

The next experiment has as its target T3, MMP-2 (Homo sapiens, UniProt P08253).
T3 construct: made in house; provided by Dr. Gregory Goldberg, Washington University
T3 sequence (P08253 110-660): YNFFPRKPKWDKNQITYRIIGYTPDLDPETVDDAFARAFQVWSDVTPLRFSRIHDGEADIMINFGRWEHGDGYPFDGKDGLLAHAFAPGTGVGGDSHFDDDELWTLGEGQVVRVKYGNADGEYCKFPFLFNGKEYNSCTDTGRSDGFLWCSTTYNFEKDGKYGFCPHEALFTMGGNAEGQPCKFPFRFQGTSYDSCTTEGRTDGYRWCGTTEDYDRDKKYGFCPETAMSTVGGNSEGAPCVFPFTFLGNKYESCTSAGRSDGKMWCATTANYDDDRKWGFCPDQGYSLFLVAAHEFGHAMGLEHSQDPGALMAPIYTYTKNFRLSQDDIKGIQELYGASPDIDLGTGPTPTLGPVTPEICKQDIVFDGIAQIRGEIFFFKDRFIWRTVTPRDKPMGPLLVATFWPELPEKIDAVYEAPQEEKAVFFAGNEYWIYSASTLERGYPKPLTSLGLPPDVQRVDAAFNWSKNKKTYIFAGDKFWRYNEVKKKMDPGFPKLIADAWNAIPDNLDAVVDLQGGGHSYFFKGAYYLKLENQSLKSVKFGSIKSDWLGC
The settings on record: read-out: MMP-2 IC50. The procedure:
as §1, §2, §3, §4, §5, §6, §7

[1] abbreviates: recombinant human MMP-1, MCA peptide substrate 4 μM, pH 7.5, room temperature.
Where [2] appears, read: recombinant human MMP-13, MCA peptide substrate 4 μM, pH 7.5, room temperature.
Setting [3] is: recombinant human MMP-2, MCA peptide substrate 4 μM, pH 7.5, room temperature.

For the compound `O=C(NO)C1(S(=O)(=O)c2ccc(N3CCC(SCc4ccc(OC(F)(F)F)cc4)CC3)cc2)CCN(C2CC2)CC1` [Example 454], the IC50 at MMP-1 (setting [1]) was above 10000 nM.

Consider `C[C@@H]1C[C@H](C)CN(C(=O)C2CCN(c3ccc(S(=O)(=O)C4(C(=O)NO)CCNCC4)cc3)CC2)C1` [Example 240, rel-4-[[4-[4-[[(3R,5S)-3,5-Dimethyl-1-piperidinyl]carbonyl]-1-piperidinyl]phenyl]sulfonyl]-N-hydroxy-4-piperidinecarboxamide, Monohydrochloride], for which the IC50 at MMP-1 (setting [1]) was above 10000 nM; at MMP-13 (setting [2]), 76.9 nM.

For the compound `CC1CC(C)CN(C(=O)C2CCN(c3ccc(S(=O)(=O)C4(C(=O)NO)CCN(C(=O)CN5CCN(CCN(C)C)CC5)CC4)cc3)CC2)C1` (centres unmarked) [Example 308], the IC50 at MMP-1 (setting [1]) was above 10000 nM; on MMP-13 (setting [2]) it was 40 nM.

As to `O=C(NO)C1(S(=O)(=O)c2ccc(N3CCC(SCc4ccccc4Cl)CC3)cc2)CCN(C2CC2)CC1` [Example 461], the IC50 at MMP-1 (setting [1]) was above 10000 nM.

As for `CC1CC(C)CN(C(=O)C2CCN(c3ccc(S(=O)(=O)C4(C(=O)NO)CCN(C(=O)CNCC(F)(F)F)CC4)cc3)CC2)C1` (centres unmarked) [Example 310], the half-maximal inhibitory concentration (IC50) is above 10000 nM at MMP-1 (setting [1]) and 60 nM on MMP-13 (setting [2]).

For `C[C@H]1C[C@H](C)CN(C(=O)C2CCN(c3ccc(S(=O)(=O)C4(C(=O)NO)CCNCC4)cc3)CC2)C1` (relative stereo) [Example 238, rel-4-[[4-[4-[[(3R,5R)-3,5-Dimethyl-1-piperidinyl]carbonyl]-1-piperidinyl]phenyl]sulfonyl]-N-hydroxy-4-piperidinecarboxamide, Monohydrochloride], the figures for the IC50 at MMP-1 and on MMP-13 were above 10000 nM and 80 nM, respectively.

For the compound `COc1ccc(C(=O)C2CCN(c3ccc(S(=O)(=O)C4(C(=O)NO)CCNCC4)cc3)CC2)cc1` [Example 437], the IC50 on MMP-1 (setting [1]) was above 10000 nM.

Turning to `CN(C)CCN1CCN(C(=O)C2CCN(c3ccc(S(=O)(=O)C4(C(=O)NO)CCOCC4)cc3)CC2)CC1` [Example 23], the IC50 at MMP-1 is above 10000 nM; on MMP-13, 90 nM.

As to `O=C(NO)C1(S(=O)(=O)c2ccc(N3CCC(SCc4cccc(C(F)(F)F)c4)CC3)cc2)CCN(C2CC2)CC1` [Example 463], the IC50 on MMP-1 (setting [1]) is above 10000 nM.

On to `O=C(NO)C1(S(=O)(=O)c2ccc(N3CCC(SCc4ccc(OC(F)(F)F)cc4)CC3)cc2)CCNCC1` [Example 460], for which the IC50 on MMP-1 (setting [1]) was above 10000 nM.

For the compound `CN(C)c1ccc(C(=O)C2CCN(c3ccc(S(=O)(=O)C4(C(=O)NO)CCOCC4)cc3)CC2)cc1` [Example 802], the IC50 on MMP-1 (setting [1]) is above 10000 nM; at MMP-13 (setting [2]), 2.3 nM.

For the compound `Cn1ccc2cc(C(=O)C3CCN(c4ccc(S(=O)(=O)C5(C(=O)NO)CCOCC5)cc4)CC3)ccc21` [Example 867], the half-inhibitory concentration (IC50) is above 10000 nM at MMP-1 (setting [1]) and 16.5 nM at MMP-13 (setting [2]).

Regarding `COc1ccc(C(=O)C2CCN(c3ccc(S(=O)(=O)C4(C(=O)NO)CCN(C(=O)c5ccco5)CC4)cc3)CC2)cc1` [Example 436], the IC50 at MMP-1 (setting [1]) is above 10000 nM.

Take `O=C(NO)C1(S(=O)(=O)c2ccc(N3CCC(SCc4ccccc4)CC3)cc2)CCN(C2CC2)CC1` [Example 417]: the IC50 is above 10000 nM at MMP-1 (setting [1]) and 0.7 nM at MMP-13 (setting [2]).

For `O=C(NO)C1(S(=O)(=O)c2ccc(N3CCN(c4ccc(C(F)(F)F)cc4)CC3)cc2)CCN(C2CC2)CC1` [Example 356], the results for the IC50 at MMP-13 (setting [2]) and at MMP-2 (setting [3]) were 2.4 nM and 32.6 nM, respectively.

`O=C(C1CCN(c2ccc(S(=O)(=O)C3(C(=O)NO)CCOCC3)cc2)CC1)N1CCN(c2ccccn2)CC1` [Example 26]: the IC50 on MMP-1 is above 10000 nM; on MMP-2, 3600 nM.

Consider `COCCN1CCC(C(N)=O)(S(=O)(=O)c2ccc(Oc3ccc(OC(F)(F)F)cc3)cc2)CC1` [Example 1], for which the IC50 on MMP-13 (setting [2]) came to 22.7 nM; at MMP-2 (setting [3]) it was 8.5 nM.

For `O=CN1CCC(C(=O)NO)(S(=O)(=O)c2ccc(Oc3ccc(OC(F)(F)F)cc3)cc2)CC1` [Example 452], the IC50 on MMP-13 (setting [2]) and at MMP-2 (setting [3]) was below 0.1 nM throughout.

With `O=C(NO)C1(S(=O)(=O)c2ccc(N3CCN(c4ccc(Cl)cc4)CC3)cc2)CCN(C2CC2)CC1` [Example 354], the results for the IC50 at MMP-13 (setting [2]) and at MMP-2 (setting [3]) were 1.6 nM and 15.4 nM, respectively.
